According to patent publication US7902373B2 (Pfizer Inc, priority 2006, dated 2011):

The compounds below were run against human recombinant H-PGDS (Homo sapiens, UniProt O60760) (assay: Fluorescence intensity h-PGDS TBA enzyme assay). Settings: Examples up to 622 (and 3a, 3b).
Assay type: biochemical

Sequence of human recombinant H-PGDS (O60760 whole entry): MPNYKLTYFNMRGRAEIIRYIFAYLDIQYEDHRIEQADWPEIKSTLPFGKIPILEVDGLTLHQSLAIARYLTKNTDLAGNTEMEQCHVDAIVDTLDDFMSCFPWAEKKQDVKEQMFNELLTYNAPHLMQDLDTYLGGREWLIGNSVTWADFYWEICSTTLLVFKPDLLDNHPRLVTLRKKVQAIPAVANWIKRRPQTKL

Compared with `COC(=O)c1cnc(N2CCC(NC(=O)c3ccc(-c4cccc(F)c4)nc3)CC2)cn1` [Example 167, Methyl 5-[4-({[6-(3-fluorophenyl)pyridin-3-yl]carbonyl}amino)piperidin-1-yl]pyrazine-2-carboxylate], `Cc1nc(N)cc(N2CCC(NC(=O)c3ccc(-c4cccc(F)c4)nc3)CC2)n1` [Example 133, N-[1-(6-Amino-2-methylpyrimidin-4-yl)piperidin-4-yl]-6-(3-fluorophenyl)nicotinamide] is 7.9-fold lower in IC50: 3.13 nM for the first, 0.395 nM for the second. The second is the more potent here.

`O=C(NC1CCN(c2nc3ccccc3o2)CC1)c1ccc(-c2cccc(F)c2)nc1` [Example 158, N-[1-(1,3-Benzoxazol-2-yl)piperidin-4-yl]-6-(3-fluorophenyl)nicotinamide] and `CC(c1ccccc1)N1CCC(NC(=O)c2ccc(-c3cccc(F)c3)nc2)CC1` (centres unmarked) [Example 531, 6-(3-Fluorophenyl)-N-[1-(1-phenylethyl)piperidin-4-yl]nicotinamide] are within 1.5-fold of each other in IC50: 1.58 nM for the first, 1.15 nM for the second.

First: Cn1ccc(CN2CCC(NC(=O)c3ccc(-c4cccc(F)c4)nc3)CC2)n1 [Example 396, 6-(3-Fluorophenyl)-N-{1-[(1-methyl-1H-pyrazol-3-yl)methyl]piperidin-4-yl}nicotinamide]
Second: CN(C)c1nccc(CN2CCC(NC(=O)c3ccc(-c4cccc(F)c4)nc3)CC2)n1 [Example 392, N-(1-{[2-(Dimethylamino)pyrimidin-4-yl]methyl}piperidin-4-yl)-6-(3-fluorophenyl)nicotinamide]
The IC50 of the first is 1.7-fold higher: 1.45 nM for the first, 0.849 nM for the second. The second is the more potent here.

Going from `Cn1nc(CN2CCC(NC(=O)c3ccc(-c4cccc(F)c4)nc3)CC2)nc1-c1ccccc1F` [Example 482, 6-(3-Fluorophenyl)-N-(1-{[5-(2-fluorophenyl)-1-methyl-1H-1,2,4-triazol-3-yl]methyl}piperidin-4-yl)nicotinamide] to `Cn1cc(CN2CCC(NC(=O)c3ccc(-c4cccc(F)c4)nc3)CC2)c2ccccc21` [Example 242, 6-(3-Fluorophenyl)-N-{1-[(1-methyl-1H-indol-3-yl)methyl]piperidin-4-yl}nicotinamide], the IC50 falls from 2.39 nM to 0.781 nM (3.1-fold).

Compared with `Cc1onc(-c2ccccc2)c1CN1CCC(NC(=O)c2ccc(-c3cccc(F)c3)nc2)CC1` [Example 344, 6-(3-Fluorophenyl)-N-{1-[(5-methyl-3-phenylisoxazol-4-yl)methyl]piperidin-4-yl}nicotinamide], `Cc1ccc(-c2n[nH]cc2CN2CCC(NC(=O)c3ccc(-c4cccc(F)c4)nc3)CC2)cc1` [Example 307, 6-(3-Fluorophenyl)-N-(1-{[3-(4-methylphenyl)-1H-pyrazol-4-yl]methyl}piperidin-4-yl)nicotinamide] is 4.5-fold higher in IC50: 0.174 nM for the first, 0.784 nM for the second.

First: O=C(NC1CCN(C2CCC(=O)N(CC3CC3)CC2)CC1)c1ccc(-c2cccc(F)c2)nc1 (centres unmarked) [Example 537, N-{1-[1-(Cyclopropylmethyl)-7-oxoazepan-4-yl]piperidin-4-yl}-6-(3-fluorophenyl)nicotinamide]
Second: O=C(NC1CCN(Cc2cccnc2OCC2CC2)CC1)c1ccc(-c2cccc(F)c2)nc1 [Example 462, N-(1-{[2-(Cyclopropylmethoxy)pyridin-3-yl]methyl}piperidin-4-yl)-6-(3-fluorophenyl)nicotinamide]
The IC50 of the first is 10-fold higher: 2.68 nM for the first, 0.264 nM for the second. The second is the more potent here.

Compared with `CC(C)(C)C(=O)N1C[C@@H](O)[C@H](NC(=O)c2ccc(-c3cccc(F)c3)nc2)C1` (relative stereo) [Example 612, Trans-N-[1-(2,2-dimethylpropanoyl)-4-hydroxypyrrolidin-3-yl]-6-(3-fluorophenyl)nicotinamide], `O=C(NC1CCN(CCCC(F)(F)F)CC1)c1ccc(-c2cccc(F)c2)nc1` [Example 312, 6-(3-Fluorophenyl)-N-[1-(4,4,4-trifluorobutyl)piperidin-4-yl]nicotinamide] is 11-fold lower in IC50: 12 nM for the first, 1.08 nM for the second. The second is the more potent here.

First: N#Cc1cccc(-c2csc(CN3CCC(NC(=O)c4ccc(-c5cccc(F)c5)nc4)CC3)n2)c1 [Example 410, N-(1-{[4-(3-Cyanophenyl)-1,3-thiazol-2-yl]methyl}piperidin-4-yl)-6-(3-fluorophenyl)nicotinamide]
Second: CC(C)c1csc(CN2CCC(NC(=O)c3ccc(-c4cccc(F)c4)nc3)CC2)n1 [Example 433, 6-(3-Fluorophenyl)-N-{1-[(4-isopropyl-1,3-thiazol-2-yl)methyl]piperidin-4-yl}nicotinamide]
The IC50 of the first is 41-fold higher: 16.3 nM for the first, 0.401 nM for the second. The second is the more potent here.

Compared with `CN(c1nccc(CN2CCC(NC(=O)c3ccc(-c4cccc(F)c4)nc3)CC2)n1)C1CCCCC1` [Example 390, N-[1-({2-[Cyclohexyl(methyl)amino]pyrimidin-4-yl}methyl)piperidin-4-yl]-6-(3-fluorophenyl)nicotinamide], `CN(C(=O)c1ccc(N2CCC(NC(=O)c3ccc(-c4cccc(F)c4)nc3)CC2)nc1)C1CCC1` [Example 569, N-Cyclobutyl-6-[4-({[6-(3-fluorophenyl)pyridin-3-yl]carbonyl}amino)piperidin-1-yl]-N-methylnicotinamide] is 5.4-fold lower in IC50: 11.6 nM for the first, 2.13 nM for the second.

First: O=C(NC1CCN(c2ccc(C(=O)N3CCOCC3)cn2)CC1)c1ccc(-c2cccc(F)c2)nc1 [Example 3, 6-(3-Fluorophenyl)-N-{1-[5-(morpholin-4-ylcarbonyl)pyridin-2-yl]piperidin-4-yl}nicotinamide]
Second: O=C1COc2ccc(CN3CCC(NC(=O)c4ccc(-c5cccc(F)c5)nc4)CC3)cc2N1 [Example 497, 6-(3-Fluorophenyl)-N-{1-[(3-oxo-3,4-dihydro-2H-14-benzoxazin-6-yl)methyl]piperidin-4-yl}nicotinamide]
The IC50 of the first is 3.1-fold lower: 0.343 nM for the first, 1.06 nM for the second. The first is the more potent here.

`COc1ccc(F)cc1CN1CCC(NC(=O)c2ccc(-c3cccc(F)c3)nc2)CC1` [Example 295, N-[1-(5-Fluoro-2-methoxybenzyl)piperidin-4-yl]-6-(3-fluorophenyl)nicotinamide] and `COc1cccc(CN2CCC(NC(=O)c3ccc(-c4cccc(F)c4)nc3)CC2)c1OC` [Example 230, N-[1-(2,3-Dimethoxybenzyl)piperidin-4-yl]-6-(3-fluorophenyl)nicotinamide] are within 1.5-fold of each other in IC50: 0.506 nM for the first, 0.53 nM for the second.

`O=C(NC1CCN(Cc2ccc3[nH]ccc3c2)CC1)c1ccc(-c2cccc(F)c2)nc1` [Example 304, 6-(3-Fluorophenyl)-N-[1-(1H-indol-5-ylmethyl)piperidin-4-yl]nicotinamide] and `COc1ccc(CN2CCC(NC(=O)c3ccc(-c4cccc(F)c4)nc3)CC2)cc1OCC(F)F` [Example 425, N-{1-[3-(2,2-Difluoroethyoxy)-4-methoxybenzyl]piperidin-4-yl}-6-(3-fluorophenyl)nicotinamide] are within 1.5-fold of each other in IC50: 2.11 nM for the first, 2.81 nM for the second.

Compared with `O=C(NC1CCN(Cc2ccccc2OC(F)F)CC1)c1ccc(-c2cccc(F)c2)nc1` [Example 292, N-{1-[2-(Difluoromethoxy)benzyl]piperidin-4-yl}-6-(3-fluorophenyl)nicotinamide], `COc1ccccc1OCC(C)N1CCC(NC(=O)c2ccc(-c3cccc(F)c3)nc2)CC1` (centres unmarked) [Example 553, 6-(3-Fluorophenyl)-N-{1-[2-(2-methoxyphenoxy)-1-methylethyl]piperidin-4-yl}nicotinamide] is 3.8-fold higher in IC50: 0.465 nM for the first, 1.78 nM for the second. The first is the more potent here.

Going from `Cn1nc(-c2ncccn2)nc1CN1CCC(NC(=O)c2ccc(-c3cccc(F)c3)nc2)CC1` [Example 481, 6-(3-Fluorophenyl)-N-{1-[(1-methyl-3-pyrimidin-2-yl-1H-1,2,4-triazol-5-yl)methyl]piperidin-4-yl}nicotinamide] to `O=C(NC1CCN(Cc2ccnc3nccnc23)CC1)c1ccc(-c2cccc(F)c2)nc1` [Example 451, 6-(3-Fluorophenyl)-N-[1-(pyrido[2,3-b]pyrazin-8-ylmethyl)piperidin-4-yl]nicotinamide], the IC50 falls from 2.45 nM to 0.88 nM (2.8-fold).

`COc1ccc(CC2CC(NC(=O)c3ccc(-c4cccc(F)c4)nc3)CCN2)cc1OC` (centres unmarked) [Example 212, N-[2-(3,4-Dimethoxybenzyl)piperidin-4-yl]-6-(3-fluorophenyl)nicotinamide] and `COc1ccc(-c2cnc(C)nc2N2CCC(NC(=O)c3ccc(-c4cccc(F)c4)nc3)CC2)cc1OC` [Example 44, N-{1-[5-(3,4-Dimethoxyphenyl)-2-methylpyrimidin-4-yl]piperidin-4-yl}-6-(3-fluorophenyl)nicotinamide] are within 1.5-fold of each other in IC50: 1.4 nM for the first, 1.36 nM for the second.

Compared with `Cn1nc(C(F)(F)F)c(CN2CCC(NC(=O)c3ccc(-c4cccc(F)c4)nc3)CC2)c1Cl` [Example 314, N-(1-{[5-Chloro-1-methyl-3-(trifluoromethyl)-1H-pyrazol-4-yl]methyl}piperidin-4-yl)-6-(3-fluorophenyl)nicotinamide], `CCn1nc(C)c(CN2CCC(NC(=O)c3ccc(-c4cccc(F)c4)nc3)CC2)c1C` [Example 274, N-{1-[(1-Ethyl-3,5-dimethyl-1H-pyrazol-4-yl)methyl]piperidin-4-yl}-6-(3-fluorophenyl)nicotinamide] is 11-fold higher in IC50: 0.24 nM for the first, 2.57 nM for the second.

Going from `CCOC(=O)N1CCC(NC(=O)c2ccc(-c3ccccc3F)nc2)CC1` [Example 586, Ethyl 4-({[6-(2-fluorophenyl)pyridin-3-yl]carbonyl}amino)piperidine-1-carboxylate] to `CCn1cnc2c(N3CCC(NC(=O)c4ccc(-c5cccc(F)c5)nc4)CC3)ncnc21` [Example 57, N-[1-(9-Ethyl-9H-purin-6-yl)piperidin-4-yl]-6-(3-fluorophenyl)nicotinamide], the IC50 falls from 0.787 nM to 0.285 nM (2.8-fold). The second is the more potent here.

First: O=C(NC1CCN(Cc2nc3cccc4c3n2CC=C4)CC1)c1ccc(-c2cccc(F)c2)nc1 [Example 456, 6-(3-Fluorophenyl)-N-[1-(4H-imidazo[4,51-ij]quinolin-2-ylmethyl)piperidin-4-yl]nicotinamide]
Second: Cc1cc(C)n(-c2cccc(CN3CCC(NC(=O)c4ccc(-c5cccc(F)c5)nc4)CC3)c2)n1 [Example 369, N-{1-[3-(3,5-Dimethyl-1H-pyrazol-1-yl)benzyl]piperidin-4-yl}-6-(3-fluorophenyl)nicotinamide]
The IC50 of the first is 1.5-fold higher: 2.05 nM for the first, 1.36 nM for the second.

`Cc1noc(NC(=O)c2cccnc2N2CCC(NC(=O)c3ccc(-c4cccc(F)c4)nc3)CC2)c1C#N` [Example 141, N-(4-Cyano-3-methylisoxazol-5-yl)-2-[4-({[6-(3-fluorophenyl)pyridin-3-yl]carbonyl}amino)piperidin-1-yl]nicotinamide] and `Cc1nn(-c2ccc(F)cc2)c(C)c1CN1CCC(NC(=O)c2ccc(-c3cccc(F)c3)nc2)CC1` [Example 362, 6-(3-Fluorophenyl)-N-(1-{[1-(4-fluorophenyl)-3,5-dimethyl-1H-pyrazol-4-yl]methyl}piperidin-4-yl)nicotinamide] are within 1.5-fold of each other in IC50: 0.721 nM for the first, 1.05 nM for the second.
